Read-outs that look alike come from different tables or passages of the source.
Key:
SMMC-7721 = test: CellTiter-Glo luminescent cell viability assay; format: cell-based; details: read-out: Anti-proliferative activity IC50 SMMC-7721
Source text: (§1) The in vitro antitumor activity of all compounds was screened against six HCC cell lines by CellTiter-Glo luminescent cell viability assay as described earlier. […] After a comprehensive assessment of PDGFR inhibition, cellular activity against HCC cells as well as potential druggability, E5 was chosen to investigate its kinase profiling, antitumor activity and molecular mechanism in the following study. […]
(§2) authenticated by using short tandem repeat (STR) matching analysis. No mycoplasma contamination was detected.
(§3) CellTiter-Glo luminescent cell viability assay
(§4) For experiments hepatocellular carcinoma cells were seeded at 4000 cells per well in 96-well plates. After overnight incubation, solution of compounds in DMSO at various concentrations were added to the cells and further incubated for 120 h. Cell viability was measured with the CellTiter-Glo Luminescent Cell Viability Assay (Promega) according to the manufacturer’s instructions. Luminescence was measured using an EnVision Multilabel Plate Reader (Perkin-Elmer). The cytotoxicity of the compounds was expressed as the percent age of luminescence relative to that of untreated cells . The concentration of compound producing 50% of cell proliferation (IC50) was calculated by nonlinear regression analysis of the response-concentration (log) curve, using the Graph-Pad Prism program package (Graph Pad Software; San Diego, CA). Results are expressed as the means of two […] experiments

QGY-7703 = test: CellTiter-Glo luminescent cell viability assay; format: cell-based; details: read-out: Anti-proliferative activity IC50 QGY-7703
Source text: as §1, §2, §3, §4

Hep3B = test: CellTiter-Glo luminescent cell viability assay; format: cell-based; details: 120 h incubation, read-out: Anti-proliferative activity IC50 Hep3B
Source text: as §1, §2, §3, §4

SNU368 = test: CellTiter-Glo luminescent cell viability assay; format: cell-based; details: 120 h incubation, read-out: Anti-proliferative activity IC50 SNU368
Source text: as §1, §2, §3, §4

MHCC97-L = test: CellTiter-Glo luminescent cell viability assay; format: cell-based; details: 120 h incubation, read-out: Anti-proliferative activity IC50 MHCC97-L
Source text: as §1, §2, §3, §4

BEL7404 = test: CellTiter-Glo luminescent cell viability assay; format: cell-based; details: read-out: Anti-proliferative activity IC50 BEL7404
Source text: as §1, §2, §3, §4

PDGFRα = PDGFRα (Homo sapiens, UniProt P16234); test: PDGFR kinase assay, Caliper microfluidic mobility shift; format: biochemical; details: compound at 1 µM, averages of two separate experiments
PDGFRα, sequence (P16234 24-1089): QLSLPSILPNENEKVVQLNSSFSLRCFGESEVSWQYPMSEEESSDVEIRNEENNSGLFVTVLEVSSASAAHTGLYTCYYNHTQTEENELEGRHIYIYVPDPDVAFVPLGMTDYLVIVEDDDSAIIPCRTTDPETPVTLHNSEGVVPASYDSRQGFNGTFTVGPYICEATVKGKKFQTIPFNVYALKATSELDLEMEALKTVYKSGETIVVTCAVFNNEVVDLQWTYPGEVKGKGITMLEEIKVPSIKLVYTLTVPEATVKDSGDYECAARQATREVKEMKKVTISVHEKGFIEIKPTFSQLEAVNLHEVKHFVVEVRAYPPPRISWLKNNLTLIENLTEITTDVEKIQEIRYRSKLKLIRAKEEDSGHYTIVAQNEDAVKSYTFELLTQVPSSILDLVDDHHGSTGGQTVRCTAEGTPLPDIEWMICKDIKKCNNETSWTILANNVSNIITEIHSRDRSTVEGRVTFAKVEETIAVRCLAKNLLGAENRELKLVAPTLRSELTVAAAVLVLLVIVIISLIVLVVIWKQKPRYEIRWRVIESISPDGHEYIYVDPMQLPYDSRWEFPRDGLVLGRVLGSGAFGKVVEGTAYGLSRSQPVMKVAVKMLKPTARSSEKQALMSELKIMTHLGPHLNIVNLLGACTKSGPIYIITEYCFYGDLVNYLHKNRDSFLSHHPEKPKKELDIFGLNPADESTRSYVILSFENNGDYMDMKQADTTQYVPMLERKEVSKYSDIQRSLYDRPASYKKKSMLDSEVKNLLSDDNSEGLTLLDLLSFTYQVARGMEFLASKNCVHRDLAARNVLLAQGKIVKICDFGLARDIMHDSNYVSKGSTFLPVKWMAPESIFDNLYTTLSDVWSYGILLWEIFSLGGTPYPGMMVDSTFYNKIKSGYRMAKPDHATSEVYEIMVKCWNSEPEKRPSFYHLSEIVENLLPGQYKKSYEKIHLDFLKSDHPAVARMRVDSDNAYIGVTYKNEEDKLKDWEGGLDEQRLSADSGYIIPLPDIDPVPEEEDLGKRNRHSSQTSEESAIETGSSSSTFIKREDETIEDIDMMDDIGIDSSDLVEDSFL
Method: (§5) In vitro inhibitory activities of all compounds at 1 μM against PDGFRα and PDGFRβ were evaluated using Caliper microfluidic mobility shift technology. […] At the same concentration, only E5 inhibited greater than 50% of PDGFRβ activity (Fig. 2B).
(§6) PDGFR kinase activity was measured using Caliper microfluidic mobility shift technology. Briefly, 2 μL compound solution (25 μM) in 25% DMSO per well were added into the 384 well microtiter plates. Then, 10 μL per well of enzyme solution (100 mM HEPES, 10 mM MgCl2, Brij35 (30%) 100 μL, 1 mM DTT, 20 ng enzyme) was added. After a brief centrifugation at 1,000 rpm, the kinase reactions were started by addition of 38 μL per well of peptide/ATP-solution (40 μM ATP, 6.5 μM peptide 5′-FAM-KKKKEEIYFFF-NH2, Tris-HCl buffer, pH 7.0) incubated at 30 °C for 60 min and stopped by the addition of 20 μL 35 mM EDTA per well. The electrophoretic separation of the phosphorylated and non-phosphorylated peptides was then carried out on LabChip EZ Reader II (Caliper Life Sciences). All other kinase reactions were carried out as previously reported using the Kinase-Glo Plus or ADP-Glo assay. Kinase inhibition rates were calculated per manufacturer’s instructions.

PDGFRβ = PDGFRβ (Homo sapiens, UniProt P09619); test: as above; format: biochemical; details: compound at 1 µM, averages of two separate experiments
PDGFRβ, sequence (P09619 33-1106): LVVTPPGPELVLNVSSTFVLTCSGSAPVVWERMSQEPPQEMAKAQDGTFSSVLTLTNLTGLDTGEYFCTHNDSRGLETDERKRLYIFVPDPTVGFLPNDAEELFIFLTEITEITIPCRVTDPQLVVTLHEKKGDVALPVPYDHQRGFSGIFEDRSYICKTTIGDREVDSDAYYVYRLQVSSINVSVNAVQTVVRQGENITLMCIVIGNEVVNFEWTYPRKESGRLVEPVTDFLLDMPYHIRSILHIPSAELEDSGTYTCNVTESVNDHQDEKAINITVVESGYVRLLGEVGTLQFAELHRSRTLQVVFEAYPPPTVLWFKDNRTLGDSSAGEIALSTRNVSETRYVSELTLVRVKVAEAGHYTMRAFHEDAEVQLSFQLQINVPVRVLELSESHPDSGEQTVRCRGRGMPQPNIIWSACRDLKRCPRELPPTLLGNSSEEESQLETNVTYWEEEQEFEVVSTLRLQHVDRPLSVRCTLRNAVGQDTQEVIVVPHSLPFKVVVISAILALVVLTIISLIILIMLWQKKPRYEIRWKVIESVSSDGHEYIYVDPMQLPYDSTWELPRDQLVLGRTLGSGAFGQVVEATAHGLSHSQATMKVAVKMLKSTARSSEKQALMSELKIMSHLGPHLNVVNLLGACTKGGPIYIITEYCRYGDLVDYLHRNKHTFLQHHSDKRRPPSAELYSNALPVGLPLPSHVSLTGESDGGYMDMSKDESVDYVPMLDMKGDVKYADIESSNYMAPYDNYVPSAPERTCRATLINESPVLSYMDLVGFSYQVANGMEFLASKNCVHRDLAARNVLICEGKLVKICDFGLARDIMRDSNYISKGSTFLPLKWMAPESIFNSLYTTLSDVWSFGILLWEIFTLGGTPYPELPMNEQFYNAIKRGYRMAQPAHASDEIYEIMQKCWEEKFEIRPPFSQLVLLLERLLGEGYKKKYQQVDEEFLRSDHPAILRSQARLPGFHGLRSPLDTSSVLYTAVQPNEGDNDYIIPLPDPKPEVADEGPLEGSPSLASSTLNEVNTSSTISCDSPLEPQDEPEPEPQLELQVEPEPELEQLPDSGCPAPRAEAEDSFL
Method: as §5, §6

Row | SMILES | IC50 (SMMC-7721; 120 h incubation) | IC50 (Hep3B) | IC50 (SNU368) | IC50 (BEL7404; 120 h incubation) | Inhibition effect (%) PDGFRα (PDGFRα) | Inhibition effect (%) PDGFRβ (PDGFRβ) | IC50 (SMMC-7721; Homo sapiens, SMMC-7721, 120 h incubation) | IC50 (Hep3B; Homo sapiens, Hep3B) | IC50 (BEL7404; Homo sapiens, BEL-7404, 120 h incubation) | inhibition at 1 µM (PDGFRα; read-out: Inhibition effect (%) PDGFRα) | inhibition at 1 µM (PDGFRβ; read-out: Inhibition effect (%) PDGFRβ) | IC50 (QGY-7703; 120 h incubation) | IC50 (MHCC97-L) | IC50 (QGY-7703; Homo sapiens, QGY-7703, 120 h incubation) | IC50 (MHCC97-L; MHCC97L)
1 | Cc1ccc(NC(=O)c2ccncc2)cc1Oc1nccc(-c2ccccc2)n1 [B12] | 8.8 µM | 17.7 µM | 18 µM | 13.4 µM | 25.66% | 20.65% | – | – | – | – | – | 27.6 µM | 44 µM | – | –
2 | Cc1ccc(NC(=O)c2cccc([N+](=O)[O-])c2)cc1Oc1nccc(-c2ccccc2)n1 [B9] | 13.8 µM | 83.2 µM | 16.8 µM | 12.9 µM | 21.34% | 19.14% | – | – | – | – | – | 19.2 µM | > 200 µM | – | –
3 | Cc1ccc(NC(=O)c2ccc(Cl)cc2)cc1Oc1nccc(-c2cccnc2)n1 [A6] | 12.3 µM | 10.7 µM | 24 µM | 9.5 µM | 47.73% | 35.96% | – | – | – | – | – | 21.9 µM | 16.2 µM | – | –
4 | COc1ccc(C(=O)Nc2ccc(C)c(Oc3nccc(-c4ccccc4)n3)c2)cc1 [B5] | 8.4 µM | 9.2 µM | 15.8 µM | 7.9 µM | 1.81% | 19.39% | – | – | – | – | – | 14.9 µM | 9.8 µM | – | –
5 | Cc1ccc(N)cc1Oc1nccc(-c2cccnc2)n1 [A1] | – | – | 85.7 µM | – | – | – | 13.6 µM | 15.8 µM | 10.8 µM | 39.1% | 21.4% | – | – | 24.5 µM | 15.1 µM
6 | Cc1ccc(NC(=O)c2ccc(Cl)cc2)cc1Oc1nccc(-c2ccccc2)n1 [B6] | 9.7 µM | 7.9 µM | 15 µM | 13.4 µM | 12.21% | 18.64% | – | – | – | – | – | 15.4 µM | 10.5 µM | – | –
7 | Cc1ccc(NC(=O)c2ccc([N+](=O)[O-])cc2)cc1Oc1nccc(-c2ccccc2)n1 [B8] | 7.5 µM | 9 µM | 12 µM | 9.9 µM | 26.17% | 37.71% | – | – | – | – | – | 14.4 µM | 14 µM | – | –
8 | Cc1ccc(NC(=O)c2cccc([N+](=O)[O-])c2)cc1Oc1nccc(-c2cccnc2)n1 [A9] | 26.8 µM | 28.4 µM | 51.5 µM | 23.8 µM | 23.63% | 23.41% | – | – | – | – | – | 48.4 µM | 53.2 µM | – | –
9 | Cc1ccc(NC(=O)c2ccc(F)cc2)cc1Oc1nccc(-c2ccccc2)n1 [B10] | 3.9 µM | 5.8 µM | 12.6 µM | 8.1 µM | 19.57% | 15.63% | – | – | – | – | – | 10.9 µM | 6.3 µM | – | –
10 | Cc1ccc(NC(=O)c2cccnc2)cc1Oc1nccc(-c2cccnc2)n1 [A11] | 79.7 µM | 105 µM | 94.6 µM | 74.2 µM | 42.91% | 6.84% | – | – | – | – | – | 252 µM | 89.3 µM | – | –

More lines, main results first:

Row | IC50 (SMMC-7721; 120 h incubation) | IC50 (Hep3B) | IC50 (SNU368) | IC50 (BEL7404; 120 h incubation) | Inhibition effect (%) PDGFRα (PDGFRα) | Inhibition effect (%) PDGFRβ (PDGFRβ) | IC50 (SMMC-7721; Homo sapiens, SMMC-7721, 120 h incubation) | IC50 (Hep3B; Homo sapiens, Hep3B) | IC50 (BEL7404; Homo sapiens, BEL-7404, 120 h incubation) | inhibition at 1 µM (PDGFRα; read-out: Inhibition effect (%) PDGFRα) | inhibition at 1 µM (PDGFRβ; read-out: Inhibition effect (%) PDGFRβ) | SMILES | IC50 (QGY-7703; 120 h incubation) | IC50 (MHCC97-L) | IC50 (QGY-7703; Homo sapiens, QGY-7703, 120 h incubation) | IC50 (MHCC97-L; MHCC97L)
11 | 18.4 µM | 41.8 µM | 26.5 µM | 15.6 µM | 24.14% | 25.67% | – | – | – | – | – | Cc1ccc(NC(=O)c2ccco2)cc1Oc1nccc(-c2cc3ccccc3n2C)n1 [F3] | 97.7 µM | > 200 µM | – | –
12 | 0.7 µM | 125 µM | 1.3 µM | 1.2 µM | -2.00% | 3.83% | – | – | – | – | – | Cc1ccc(NC(=O)c2ccco2)cc1Oc1nccc(-c2cc3ccccc3o2)n1 [E3] | 0.7 µM | 9.6 µM | – | –
13 | 29.5 µM | 36.3 µM | 55.9 µM | 48.2 µM | 33.78% | 2.07% | – | – | – | – | – | CCC(=O)Nc1ccc(C)c(Oc2nccc(-c3cccc4ccccc34)n2)c1 [C2] | 120 µM | 111 µM | – | –
14 | 2.5 µM | 3.8 µM | 6.3 µM | 2.8 µM | 26.16% | 14.62% | – | – | – | – | – | Cc1ccc(NC(=O)CO)cc1Oc1nccc(-c2cc3ccccc3o2)n1 [E8] | 3.3 µM | 13.6 µM | – | –
15 | 27.7 µM | 11.7 µM | 31.6 µM | 38.1 µM | -1.24% | -0.44% | – | – | – | – | – | Cc1ccc(NC(=O)CN2CCN(C)CC2)cc1Oc1nccc(-c2cc3ccccc3o2)n1 [E6] | 29.5 µM | 16.7 µM | – | –
16 | 8.2 µM | 7.3 µM | 12.7 µM | 10.9 µM | 33.02% | 37.47% | – | – | – | – | – | Cc1ccc(NC(=O)c2ccc(Cl)cc2)cc1Oc1nccc(-c2ccco2)n1 [D6] | 25.8 µM | 24.6 µM | – | –
17 | 0.2 µM | 74.6 µM | 13.2 µM | 8.2 µM | 19.06% | 10.10% | – | – | – | – | – | CCC(=O)Nc1ccc(C)c(Oc2nccc(-c3cc4ccccc4o3)n2)c1 [E2] | 0.4 µM | 5.5 µM | – | –
18 | 3.7 µM | 6 µM | 23.2 µM | 4.5 µM | 45.70% | 46.00% | – | – | – | – | – | Cc1cccc(C(=O)Nc2ccc(C)c(Oc3nccc(-c4ccco4)n3)c2)c1 [D4] | 7.5 µM | 3.4 µM | – | –
19 | 12 µM | 22.9 µM | 15.8 µM | 8.8 µM | 13.73% | 2.83% | – | – | – | – | – | Cc1ccc(NC(=O)c2ccoc2)cc1Oc1nccc(-c2cccc3ccccc23)n1 [C4] | 14.9 µM | 96.4 µM | – | –
20 | 27.2 µM | 33.5 µM | 37.9 µM | 39.7 µM | 46.46% | 11.61% | – | – | – | – | – | Cc1ccc(NC(=O)c2ccco2)cc1Oc1nccc(-c2cccc3ccccc23)n1 [C3] | 70.7 µM | 91 µM | – | –

Reference: PMC6053381, “Novel 2-phenyloxypyrimidine derivative induces apoptosis and autophagy via inhibiting PI3K pathway and activating MAPK/ERK signaling in hepatocellular carcinoma cells” (Scientific Reports, 2018)
